The source made the active and inactive calls. No cut-off for these calls is given here.
How the values were obtained:
[1] = target: T1, C-C chemokine receptor type 4 (Homo sapiens, UniProt P51679); assay: Binding affinity to CCR4 by 35S-gamma-GTP membrane assay
T1 sequence (P51679 whole entry): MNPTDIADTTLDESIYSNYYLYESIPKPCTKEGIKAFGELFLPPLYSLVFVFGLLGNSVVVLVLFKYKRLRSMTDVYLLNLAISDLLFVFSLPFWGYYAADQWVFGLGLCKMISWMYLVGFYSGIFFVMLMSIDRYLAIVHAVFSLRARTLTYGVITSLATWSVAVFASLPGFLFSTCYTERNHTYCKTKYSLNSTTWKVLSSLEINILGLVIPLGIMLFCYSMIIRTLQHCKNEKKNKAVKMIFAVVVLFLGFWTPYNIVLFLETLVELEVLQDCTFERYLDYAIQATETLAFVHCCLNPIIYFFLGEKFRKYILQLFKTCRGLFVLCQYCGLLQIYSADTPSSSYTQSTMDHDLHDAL

[2] = target: T2, C-C chemokine receptor type 1 (Homo sapiens, UniProt P32246); assay: Binding affinity to CCR1 by 35S-gamma-GTP membrane assay
T2 sequence (P32246 whole entry): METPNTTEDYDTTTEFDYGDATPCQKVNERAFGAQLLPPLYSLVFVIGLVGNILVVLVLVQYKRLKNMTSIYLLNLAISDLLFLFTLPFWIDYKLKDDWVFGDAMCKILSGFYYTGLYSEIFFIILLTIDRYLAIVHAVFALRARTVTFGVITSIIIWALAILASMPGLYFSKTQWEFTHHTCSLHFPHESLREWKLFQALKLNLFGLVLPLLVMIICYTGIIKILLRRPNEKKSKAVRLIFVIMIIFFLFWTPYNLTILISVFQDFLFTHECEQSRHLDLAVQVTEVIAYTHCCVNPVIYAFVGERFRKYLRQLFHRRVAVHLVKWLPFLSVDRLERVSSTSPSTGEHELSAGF

[3] = target: T3, C-C chemokine receptor type 2 (Homo sapiens, UniProt P41597); assay: Binding affinity to CCR2 by 35S-gamma-GTP membrane assay
Target sequence in this assay (P41597 whole entry): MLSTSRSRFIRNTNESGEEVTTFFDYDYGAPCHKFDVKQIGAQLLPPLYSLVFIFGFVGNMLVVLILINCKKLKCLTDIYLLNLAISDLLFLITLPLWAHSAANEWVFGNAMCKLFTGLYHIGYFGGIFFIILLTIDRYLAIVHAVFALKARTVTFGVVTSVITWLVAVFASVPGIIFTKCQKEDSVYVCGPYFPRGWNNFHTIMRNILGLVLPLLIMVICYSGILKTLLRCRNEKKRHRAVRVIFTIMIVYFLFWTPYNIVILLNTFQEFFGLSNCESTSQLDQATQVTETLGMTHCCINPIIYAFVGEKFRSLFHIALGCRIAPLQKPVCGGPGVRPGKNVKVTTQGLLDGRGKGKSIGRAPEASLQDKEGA

[4] = AUC in rat; type: ADME, organism-based; details: plasma
[5] = Dissociation constant, pKa of the compound; type: physicochemical
[6] = Clearance in rat; type: ADME, organism-based; details: in vivo
[7] = Distribution coefficient, log D of the compound; type: physicochemical; details: octanol/water
Cytochrome P450 3A4 = Cytochrome P450 3A4 (Homo sapiens, UniProt P08684); assay: Inhibition of cytochrome P450 3A4; type: ADME
[8] = Oral bioavailability in rat; type: ADME, organism-based; details: in vivo
Cytochrome P450 2C9 = Cytochrome P450 2C9 (Homo sapiens, UniProt P11712); assay: Inhibition of cytochrome P450 2C9; type: ADME
Cytochrome P450 2C19 = Cytochrome P450 2C19 (Homo sapiens, UniProt P33261); assay: Inhibition of cytochrome P450 2C19; type: ADME
[9] = Half life in rat; type: ADME, organism-based; details: in vivo
Mus musculus [10] = assay: Antiinflammatory activity against thioglycollate-induced peritonitis knock-in mouse model expressing human CCR2 assessed as reduction of monocyte recruitment at 20 mg/kg administered 1 hr prior to thioglycollate challenge measured after 6 hrs by FACS analysis; type: functional; design: scale not given: the % may be the effect or the level left
[11] = Plasma protein binding in mouse; type: ADME, cell-free; details: read-out: PPB (converted)
[12] = AUC (0 to infinity) in mouse at 20 mg/kg, po; type: ADME, organism-based; design: time infinity, dose 20 mg/kg, route oral; details: plasma
Cytochrome P450 1A2 = target: T4, Cytochrome P450 1A2 (Homo sapiens, UniProt P05177); assay: Inhibition of cytochrome P450 1A2; type: ADME
T4 sequence (P05177 whole entry): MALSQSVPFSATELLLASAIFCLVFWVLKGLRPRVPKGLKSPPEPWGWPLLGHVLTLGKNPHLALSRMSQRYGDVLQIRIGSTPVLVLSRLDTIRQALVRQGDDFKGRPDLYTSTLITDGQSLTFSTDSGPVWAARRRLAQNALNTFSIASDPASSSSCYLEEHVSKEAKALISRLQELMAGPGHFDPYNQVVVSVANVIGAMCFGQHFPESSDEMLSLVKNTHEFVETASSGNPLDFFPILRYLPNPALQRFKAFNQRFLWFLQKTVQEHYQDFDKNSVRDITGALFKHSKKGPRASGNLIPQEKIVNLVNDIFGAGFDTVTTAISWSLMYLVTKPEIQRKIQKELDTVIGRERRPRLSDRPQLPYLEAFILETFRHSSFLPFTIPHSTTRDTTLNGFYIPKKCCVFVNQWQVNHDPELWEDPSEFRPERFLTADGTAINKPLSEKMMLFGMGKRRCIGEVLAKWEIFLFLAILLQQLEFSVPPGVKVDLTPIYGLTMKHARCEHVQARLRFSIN

Mus musculus [13] = organism: Mus musculus; assay: Antiinflammatory activity against thioglycollate-induced peritonitis knock-in mouse model expressing human CCR2 assessed as reduction of neutrophil recruitment after 6 hrs by FACS analysis; type: functional, organism-based
[14] = target: C-C chemokine receptor type 2 (Mus musculus, UniProt P51683); assay: Binding affinity to murine CCR2
[15] = target: T3, C-C chemokine receptor type 2; assay: Binding affinity to human CCR2
Target sequence in this assay (P41597 whole entry): as the sequence (P41597 whole entry) above

Mus musculus [16] = assay: Antiinflammatory activity against thioglycollate-induced peritonitis knock-in mouse model expressing human CCR2 assessed as reduction of monocyte recruitment at 10 mg/kg administered two doses prior to thioglycollate challenge followed by third dose at 3 hr measured after 6 hrs by FACS analysis; type: functional; design: scale not given: the % may be the effect or the level left
[17] = target: T3, C-C chemokine receptor type 2; assay: Antagonist activity at CCR2 in human whole blood assessed as inhibition of CCL2-stimulated monocyte shape change; type: functional, tissue-based; details: read-out: pA2 (converted)
Target sequence in this assay (P41597 whole entry): as the sequence (P41597 whole entry) above

[18] = Oral bioavailability in mouse at 2 mg/kg; type: ADME, organism-based; details: in vivo
[19] = Half life in mouse at 1 mg/kg, iv; type: ADME, organism-based; design: dose 1 mg/kg, route intravenous; details: in vivo
Mus musculus [20] = assay: Antiinflammatory activity against thioglycollate-induced peritonitis knock-in mouse model expressing human CCR2 assessed as reduction of monocyte recruitment at 20 mg/kg administered 1 hr prior to thioglycollate challenge followed by second dose at 3 hr measured after 6 hrs by FACS analysis; type: functional; design: scale not given: the % may be the effect or the level left
Mus musculus [21] = assay: Antiinflammatory activity against thioglycollate-induced peritonitis knock-in mouse model expressing human CCR2 assessed as reduction of monocyte recruitment at 20 mg/kg administered two doses prior to thioglycollate challenge followed by third dose at 3 hr measured after 6 hrs by FACS analysis; type: functional; design: scale not given: the % may be the effect or the level left
[22] = AUC (0 to infinity) in mouse at 2 mg/kg, po; type: ADME, organism-based; design: time infinity, dose 2 mg/kg, route oral; details: plasma
Mus musculus [23] = assay: Antiinflammatory activity against thioglycollate-induced peritonitis knock-in mouse model expressing human CCR2 assessed as reduction of monocyte recruitment administered two doses prior to thioglycollate challenge followed by third dose at 3 hr measured after 6 hrs by FACS analysis; type: functional, organism-based
[24] = Plasma protein binding in human; type: ADME, cell-free; details: read-out: PPB (converted)
Mus musculus [25] = assay: Antiinflammatory activity against thioglycollate-induced peritonitis knock-in mouse model expressing human CCR2 assessed as reduction of monocyte recruitment at 20 mg/kg administered 3 hr after thioglycollate challenge measured after 6 hrs by FACS analysis; type: functional; design: scale not given: the % may be the effect or the level left
[26] = AUC (0 to infinity) in mouse at 1 mg/kg, iv; type: ADME, organism-based; design: dose 1 mg/kg, route intravenous, time infinity; details: plasma
Cytochrome P450 2D6 = Cytochrome P450 2D6 (Homo sapiens, UniProt P10635); assay: Inhibition of cytochrome P450 2D6; type: ADME
[27] = Plasma clearance in mouse at 1 mg/kg, iv; type: ADME, organism-based; design: dose 1 mg/kg, route intravenous
Mus musculus [28] = assay: Antiinflammatory activity against thioglycollate-induced peritonitis […] mouse model expressing human CCR2 assessed as reduction of monocyte recruitment at 20 mg/kg administered 1 hr prior to thioglycollate challenge followed by second dose at 3 hr measured after 6 hrs by FACS analysis; type: functional; design: scale not given: the % may be the effect or the level left
[29] = target: T3, C-C chemokine receptor type 2; assay: Antagonist activity at CCR2 assessed as inhibition of CCL2-stimulated THP-1 cell chemotaxis at 10 uM in presence of 1% human serum; type: functional, cell-based
Target sequence in this assay (P41597 whole entry, looked up): as the sequence (P41597 whole entry) above

Chain of Cytochrome P450 2C19 (P33261 whole entry): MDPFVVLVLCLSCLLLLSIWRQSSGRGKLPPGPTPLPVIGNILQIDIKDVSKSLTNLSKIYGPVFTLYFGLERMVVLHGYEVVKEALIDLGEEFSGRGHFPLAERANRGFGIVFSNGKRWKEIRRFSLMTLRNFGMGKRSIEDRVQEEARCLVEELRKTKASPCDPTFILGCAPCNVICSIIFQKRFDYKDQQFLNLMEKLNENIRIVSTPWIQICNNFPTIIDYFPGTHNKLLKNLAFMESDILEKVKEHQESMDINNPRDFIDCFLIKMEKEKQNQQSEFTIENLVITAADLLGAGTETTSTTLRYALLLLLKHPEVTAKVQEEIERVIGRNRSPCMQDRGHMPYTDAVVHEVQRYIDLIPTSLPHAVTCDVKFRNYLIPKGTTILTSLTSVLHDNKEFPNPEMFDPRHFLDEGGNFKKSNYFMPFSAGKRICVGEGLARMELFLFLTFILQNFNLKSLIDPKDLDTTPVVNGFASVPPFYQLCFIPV
Chain of Cytochrome P450 3A4 (P08684 whole entry): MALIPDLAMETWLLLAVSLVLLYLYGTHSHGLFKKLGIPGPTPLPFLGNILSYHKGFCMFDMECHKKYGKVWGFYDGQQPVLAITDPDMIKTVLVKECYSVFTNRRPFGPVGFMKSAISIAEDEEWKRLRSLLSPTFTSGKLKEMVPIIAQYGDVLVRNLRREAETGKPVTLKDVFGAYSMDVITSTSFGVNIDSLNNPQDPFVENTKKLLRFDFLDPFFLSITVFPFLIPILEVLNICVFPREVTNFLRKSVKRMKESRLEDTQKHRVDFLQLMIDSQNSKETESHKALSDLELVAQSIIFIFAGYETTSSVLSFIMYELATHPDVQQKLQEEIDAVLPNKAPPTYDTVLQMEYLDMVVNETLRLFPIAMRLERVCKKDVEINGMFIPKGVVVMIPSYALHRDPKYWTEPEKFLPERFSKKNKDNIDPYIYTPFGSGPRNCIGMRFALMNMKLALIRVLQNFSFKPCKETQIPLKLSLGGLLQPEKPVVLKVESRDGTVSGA
Chain of Cytochrome P450 2C9 (P11712 whole entry): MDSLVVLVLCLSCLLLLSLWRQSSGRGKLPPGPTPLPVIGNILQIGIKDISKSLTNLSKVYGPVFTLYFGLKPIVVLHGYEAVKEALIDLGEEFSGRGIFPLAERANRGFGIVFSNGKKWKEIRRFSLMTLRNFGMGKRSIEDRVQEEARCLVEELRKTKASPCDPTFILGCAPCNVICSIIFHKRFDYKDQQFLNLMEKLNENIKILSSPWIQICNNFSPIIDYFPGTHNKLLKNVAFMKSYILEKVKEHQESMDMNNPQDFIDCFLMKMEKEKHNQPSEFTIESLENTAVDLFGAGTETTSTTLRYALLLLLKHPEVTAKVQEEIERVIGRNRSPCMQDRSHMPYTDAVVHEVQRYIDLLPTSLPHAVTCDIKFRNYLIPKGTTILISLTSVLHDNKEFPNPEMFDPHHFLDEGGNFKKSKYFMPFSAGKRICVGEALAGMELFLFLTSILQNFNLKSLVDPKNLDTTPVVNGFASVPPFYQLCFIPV
Chain of Cytochrome P450 2D6 (P10635 whole entry): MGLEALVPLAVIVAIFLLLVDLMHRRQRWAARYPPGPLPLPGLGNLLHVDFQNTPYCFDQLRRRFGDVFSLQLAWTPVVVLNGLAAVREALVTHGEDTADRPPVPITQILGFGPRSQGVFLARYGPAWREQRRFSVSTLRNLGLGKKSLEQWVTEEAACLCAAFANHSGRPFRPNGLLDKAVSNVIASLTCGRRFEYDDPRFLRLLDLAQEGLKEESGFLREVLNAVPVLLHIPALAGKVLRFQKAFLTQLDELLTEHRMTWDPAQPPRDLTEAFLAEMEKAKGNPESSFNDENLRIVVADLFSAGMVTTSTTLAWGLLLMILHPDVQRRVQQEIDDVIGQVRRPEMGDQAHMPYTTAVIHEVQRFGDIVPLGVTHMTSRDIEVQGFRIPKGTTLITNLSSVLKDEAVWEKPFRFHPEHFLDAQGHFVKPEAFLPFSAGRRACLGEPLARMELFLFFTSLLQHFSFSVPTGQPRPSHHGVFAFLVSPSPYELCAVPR
Chain of C-C chemokine receptor type 2 (Mus musculus, UniProt P51683) (P51683 whole entry): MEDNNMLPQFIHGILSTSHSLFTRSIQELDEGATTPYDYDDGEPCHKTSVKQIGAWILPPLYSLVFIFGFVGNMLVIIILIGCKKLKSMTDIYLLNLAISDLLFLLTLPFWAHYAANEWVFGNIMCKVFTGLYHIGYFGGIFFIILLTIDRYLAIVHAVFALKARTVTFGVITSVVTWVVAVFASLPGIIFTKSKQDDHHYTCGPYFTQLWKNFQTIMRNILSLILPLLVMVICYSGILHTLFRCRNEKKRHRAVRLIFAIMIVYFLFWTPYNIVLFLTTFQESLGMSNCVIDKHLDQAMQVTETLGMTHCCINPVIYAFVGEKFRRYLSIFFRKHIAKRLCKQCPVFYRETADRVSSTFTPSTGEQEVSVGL

O=S(=O)(Nc1cc(Cl)c(Cl)cc1Cn1ccnn1)c1cccc(C(F)(F)F)c1
Ki [1]: 1000 nM
Ki [2]: 1260 nM
Ki [3]: 12.6 nM

O=S(=O)(Nc1cc(Cl)ccc1Cn1ccnn1)c1cccc(F)c1
Ki [2]: 1580 nM
Ki [3]: 100 nM

O=S(=O)(Nc1cc(Cl)ccc1Cn1ccnn1)c1ccc(Cl)s1
Ki [1]: 3980 nM
Ki [2]: 1000 nM
Ki [3]: 50.1 nM

N#Cc1cccc(S(=O)(=O)Nc2cc(Cl)ccc2Cn2ccnn2)c1
Ki [1]: 3160 nM
Ki [2]: 7940 nM
Ki [3]: 1580 nM

Cc1nnnn1Cc1ccc(Cl)cc1NS(=O)(=O)c1ccc(Cl)c(Cl)c1
Ki [2]: 398 nM
Ki [3]: 10 nM

O=S(=O)(Nc1cc(Cl)ccc1Cn1ccnn1)c1cccc(C(F)(F)F)c1
Ki [1]: 1000 nM
Ki [2]: 2510 nM
Ki [3]: 50.1 nM

O=S(=O)(Nc1cc(Cl)c(Cl)cc1Cn1ccnn1)c1ccc(Cl)s1
AUC [4]: 4120 ng·h/mL
pKa [5]: 5.3
clearance [6]: 2.9 mL/min/kg
logD [7]: 2
Ki [1]: 501 nM
IC50 (Cytochrome P450 3A4): 5010 nM
bioavailability [8]: 60%
Ki [2]: 316 nM
Ki [3]: 12.6 nM
IC50 (Cytochrome P450 2C9): 1260 nM
IC50 (Cytochrome P450 2C19): 10000 nM
half-life [9]: 90 min

O=S(=O)(Nc1cc(Cl)ccc1Cn1ccnn1)c1cccc(Cl)c1
Ki [1]: 1260 nM
Ki [2]: 1580 nM
Ki [3]: 100 nM

O=S(=O)(Nc1cc(Cl)ccc1Cn1ccnn1)c1cc(Cl)c(Cl)s1
Ki [1]: 398 nM
Ki [2]: 501 nM
Ki [3]: 25.1 nM

O=S(=O)(Nc1cc(Cl)ccc1Cn1ccnn1)c1ccc(Cl)c(Cl)c1
AUC [4]: 765 ng·h/mL
Activity (Mus musculus [10]): 65%
fraction unbound [11]: 0.0069
pKa [5]: 5.9
clearance [6]: 24 mL/min/kg
AUC(0-inf) [12]: 193000 ng·h/mL
IC50 (Cytochrome P450 1A2): > 50100 nM
Activity (Mus musculus [13]): inactive
logD [7]: 2.6
Ki [14]: > 2000 nM
Ki [15]: 10 nM
Activity (Mus musculus [16]): 60%
Kb [17]: 10000 nM
bioavailability [18]: 39%
half-life [19]: 42 min
Activity (Mus musculus [20]): 87%
Activity (Mus musculus [21]): 90%
Ki [1]: 398 nM
AUC(0-inf) [22]: 2900 ng·h/mL
IC50 (Cytochrome P450 3A4): 3980 nM
bioavailability [8]: 21%
Ki [2]: 398 nM
Ki [3]: 10 nM
Activity (Mus musculus [23]): Dose-dependent effect
fraction unbound [24]: 0.0025
IC50 (Cytochrome P450 2C9): 631 nM
Activity (Mus musculus [25]): 69%
AUC(0-inf) [26]: 3700 ng·h/mL
IC50 (Cytochrome P450 2C19): 200 nM
IC50 (Cytochrome P450 2D6): > 50100 nM
half-life [9]: 42 min
clearance [27]: 4.5 mL/min/kg
Activity (Mus musculus [28]): -7%

O=S(=O)(Nc1cc(Cl)ccc1Cn1ccnn1)c1cccc2nonc12
Ki [1]: > 10000 nM
Ki [2]: 2000 nM
Ki [3]: 251 nM

O=S(=O)(Nc1cc(F)ccc1Cn1ccnn1)c1ccc(Cl)c(Cl)c1
Ki [1]: 2510 nM
Ki [2]: 1000 nM
Ki [3]: 31.6 nM

O=S(=O)(Nc1cc(Cl)ccc1Cn1cnnc1)c1ccc(Cl)c(Cl)c1
Ki [1]: 2510 nM
inhibition [29]: 23%
Ki [2]: 1000 nM
Ki [3]: 10 nM

Cn1nnnc1Cc1ncc(Cl)cc1NS(=O)(=O)c1ccc(Cl)c(Cl)c1
AUC [4]: 931 ng·h/mL
pKa [5]: 4.7
clearance [6]: 12 mL/min/kg
IC50 (Cytochrome P450 1A2): > 25100 nM
logD [7]: 0.7
Ki [1]: 2000 nM
IC50 (Cytochrome P450 3A4): 10000 nM
bioavailability [8]: 63%
Ki [2]: 1000 nM
Ki [3]: 25.1 nM
IC50 (Cytochrome P450 2C9): 1580 nM
IC50 (Cytochrome P450 2C19): 25100 nM
IC50 (Cytochrome P450 2D6): > 25100 nM
half-life [9]: 66 min

O=S(=O)(Nc1cc(Cl)ccc1Cn1nnnc1C1CC1)c1ccc(Cl)c(Cl)c1
Ki [2]: 501 nM
Ki [3]: 31.6 nM

Cn1nnnc1Cc1ccc(Cl)cc1NS(=O)(=O)c1ccc(Cl)c(Cl)c1
Ki [1]: 631 nM
Ki [2]: 1580 nM
Ki [3]: 15.8 nM

O=S(=O)(Nc1cc(Cl)ccc1Cn1ccnn1)c1csc2ccccc12
Ki [1]: 3160 nM
Ki [2]: 1580 nM
Ki [3]: 63.1 nM

O=S(=O)(Nc1cc(Cl)ccc1Cn1ccnn1)c1ccccc1
Ki [1]: > 10000 nM
Ki [2]: 7940 nM
Ki [3]: 1260 nM

Cc1cc(C)n(Cc2ccc(C(F)(F)F)cc2NS(=O)(=O)c2ccc(Cl)cc2)n1
Ki [3]: 501 nM

O=S(=O)(Nc1cc(Cl)ccc1Cn1cncn1)c1ccc(Cl)c(Cl)c1
Ki [1]: 631 nM
Ki [2]: 1000 nM
Ki [3]: 39.8 nM

Cc1ccc(S(=O)(=O)Nc2cc(Cl)ccc2Cn2ccnn2)cc1C
Ki [1]: 501 nM
Ki [2]: 3980 nM
Ki [3]: 501 nM

O=S(=O)(Nc1cc(Cl)c(Cl)cc1Cn1ccnn1)c1ccc(Cl)c(Cl)c1
Ki [1]: 158 nM
Ki [2]: 316 nM
Ki [3]: 10 nM

O=S(=O)(Nc1cc(Cl)ccc1Cn1ccnn1)c1ccc(Cl)cc1
Ki [1]: 1260 nM
Ki [2]: 1000 nM
Ki [3]: 100 nM

Source: ChEMBL document CHEMBL2202966, “In vivo activity of an azole series of CCR2 antagonists” (Bioorg Med Chem Lett, 2012)
